Data set [1] has as its target T1, Tyrosine-protein kinase receptor UFO (Homo sapiens, UniProt P30530).
T1 sequence (P30530 whole entry): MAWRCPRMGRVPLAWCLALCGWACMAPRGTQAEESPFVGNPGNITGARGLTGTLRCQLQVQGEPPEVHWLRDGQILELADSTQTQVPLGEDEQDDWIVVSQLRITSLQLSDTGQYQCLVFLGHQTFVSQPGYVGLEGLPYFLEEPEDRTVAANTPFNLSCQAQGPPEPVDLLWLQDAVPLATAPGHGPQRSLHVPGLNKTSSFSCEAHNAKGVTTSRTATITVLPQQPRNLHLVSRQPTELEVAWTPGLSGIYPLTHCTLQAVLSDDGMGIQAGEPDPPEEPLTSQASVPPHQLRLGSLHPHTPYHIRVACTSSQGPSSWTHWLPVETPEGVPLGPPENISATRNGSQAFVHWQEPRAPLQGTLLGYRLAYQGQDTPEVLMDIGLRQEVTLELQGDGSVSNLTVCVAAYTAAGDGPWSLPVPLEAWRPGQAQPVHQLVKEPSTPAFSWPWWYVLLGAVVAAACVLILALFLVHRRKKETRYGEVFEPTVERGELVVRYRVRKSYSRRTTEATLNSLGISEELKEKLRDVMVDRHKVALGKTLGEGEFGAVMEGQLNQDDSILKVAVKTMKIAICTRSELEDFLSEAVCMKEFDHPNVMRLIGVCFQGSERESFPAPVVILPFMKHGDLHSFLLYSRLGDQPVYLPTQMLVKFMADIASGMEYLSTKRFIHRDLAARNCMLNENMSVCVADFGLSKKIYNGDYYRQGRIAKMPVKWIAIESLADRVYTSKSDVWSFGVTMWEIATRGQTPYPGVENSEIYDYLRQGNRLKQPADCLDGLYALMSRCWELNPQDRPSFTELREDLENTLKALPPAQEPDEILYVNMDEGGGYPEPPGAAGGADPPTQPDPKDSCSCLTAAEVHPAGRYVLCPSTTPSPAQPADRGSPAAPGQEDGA
Nature of the data set: Inhibition of human AXL measured after 150 mins by ATP-competitive HTRF based biochemical assay.

A short description of data set [2]: Metabolic stability in rat hepatocytes assessed as intrinsic clearance measured per 10^6 cells. The note with it: read-out: CLH. It counts as ADME, cell-based, Hepatocyte.
Data set [3] in a line: AUCinf in Sprague-Dawley rat at 2 mg/kg, po measured up to 8 hrs by LC-MS/MS analysis. It counts as ADME, organism-based. Particulars: in vivo.
Data set [4] deals with T1, Tyrosine-protein kinase receptor UFO. Nature of the data set: Inhibition of autophosphorylation AXL (unknown origin) expressed in HEK293 cells assessed as NanoLuc activity associated with phosphorylated proteins measured after 1 hr incubation by intracellular pAXL-ELISA. The class given is cell-based.
The nature of data set [5]: Clearance in cynomolgus monkey at 0.5 mg/kg, iv measured up to 24 hrs by LC-MS/MS analysis. It counts as ADME, organism-based, Macaca fascicularis. Particulars: in vivo.
For another data set, the target named is T2, CYP1A2 (Homo sapiens, UniProt P05177).
T2 sequence (P05177 whole entry): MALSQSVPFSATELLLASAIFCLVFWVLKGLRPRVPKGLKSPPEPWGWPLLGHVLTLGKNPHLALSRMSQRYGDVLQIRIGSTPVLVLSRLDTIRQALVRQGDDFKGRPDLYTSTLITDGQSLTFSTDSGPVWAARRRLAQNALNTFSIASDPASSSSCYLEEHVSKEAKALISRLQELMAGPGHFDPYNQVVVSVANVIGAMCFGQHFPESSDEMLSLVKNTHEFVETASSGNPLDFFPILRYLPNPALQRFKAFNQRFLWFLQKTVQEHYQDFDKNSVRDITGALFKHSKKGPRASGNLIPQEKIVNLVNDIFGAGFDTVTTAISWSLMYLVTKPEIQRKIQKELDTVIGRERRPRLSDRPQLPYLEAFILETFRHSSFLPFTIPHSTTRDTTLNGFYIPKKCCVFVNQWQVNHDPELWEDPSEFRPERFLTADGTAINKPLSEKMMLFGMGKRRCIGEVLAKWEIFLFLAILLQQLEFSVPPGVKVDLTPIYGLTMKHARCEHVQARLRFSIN
Nature of the data set: Time dependent inhibition of CYP1A2 (unknown origin) at 30 uM measured after 30 mins relative to control. It counts as ADME. Particulars: read-out: TDI.

The target in another data set is CYP2C19 (Homo sapiens, UniProt P33261). Nature of the data set: Time dependent inhibition of CYP2C19 (unknown origin) at 30 uM measured after 30 mins relative to control. The note with it: read-out: TDI. The class given is ADME.
Sequence of CYP2C19 (P33261 whole entry): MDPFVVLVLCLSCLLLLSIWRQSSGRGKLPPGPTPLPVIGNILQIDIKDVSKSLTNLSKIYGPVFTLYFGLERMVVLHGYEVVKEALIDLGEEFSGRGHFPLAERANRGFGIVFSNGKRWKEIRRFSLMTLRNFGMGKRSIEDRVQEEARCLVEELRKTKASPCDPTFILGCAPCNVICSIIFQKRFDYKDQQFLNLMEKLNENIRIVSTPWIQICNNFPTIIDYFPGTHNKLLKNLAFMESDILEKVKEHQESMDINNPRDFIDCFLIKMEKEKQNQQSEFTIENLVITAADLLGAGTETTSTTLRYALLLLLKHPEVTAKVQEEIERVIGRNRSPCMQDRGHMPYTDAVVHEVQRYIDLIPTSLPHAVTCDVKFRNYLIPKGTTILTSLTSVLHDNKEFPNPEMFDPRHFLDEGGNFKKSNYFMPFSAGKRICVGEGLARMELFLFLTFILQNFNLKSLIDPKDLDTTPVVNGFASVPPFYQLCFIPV
Another data set addresses T3, Cytochrome P450 2C8 (Homo sapiens, UniProt P10632).
T3 sequence (P10632 whole entry): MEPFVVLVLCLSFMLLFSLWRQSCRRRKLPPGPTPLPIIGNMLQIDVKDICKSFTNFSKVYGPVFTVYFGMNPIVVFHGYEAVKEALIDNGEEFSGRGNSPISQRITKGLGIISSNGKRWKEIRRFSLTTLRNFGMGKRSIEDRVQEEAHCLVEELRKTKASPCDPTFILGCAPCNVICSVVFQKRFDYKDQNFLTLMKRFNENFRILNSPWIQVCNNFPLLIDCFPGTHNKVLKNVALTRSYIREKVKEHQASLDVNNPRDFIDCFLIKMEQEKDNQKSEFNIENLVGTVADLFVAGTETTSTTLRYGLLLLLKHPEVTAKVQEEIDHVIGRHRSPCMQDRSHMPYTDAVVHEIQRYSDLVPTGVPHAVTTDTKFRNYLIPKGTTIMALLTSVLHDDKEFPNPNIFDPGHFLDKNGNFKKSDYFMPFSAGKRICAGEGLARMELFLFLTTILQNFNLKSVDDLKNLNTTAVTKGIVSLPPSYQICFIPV
The data set can be described thus: Inhibition of CYP2C8 (unknown origin) measured after 30 mins. The class given is ADME.

The subject of data set [6] is 786-0. Nature of the data set: Anti-tumor activity against human 786-0 cells xenografted in mouse model assessed as reduction in tumor volume in presence of sunitinib at 30 mg/kg, po once daily for 15 days. It counts as functional, organism-based. The note with it: time 15.0 day.
The test system of data set [7] is 786-0. Nature of the data set: Anti-tumor activity against human 786-0 cells xenografted in mouse model assessed as tumor growth inhibition in presence of sunitinib at 10 mg/kg, po once daily for 15 days. The class given is functional, organism-based. Particulars: time 15.0 day.
Data set [8] concerns 786-0. The data set can be described thus: Anti-tumor activity against human 786-0 cells xenografted in mouse model assessed as reduction in tumor volume in presence of sunitinib at 10 mg/kg, po once daily for 15 days. The class given is functional, organism-based. The note with it: time 15.0 day.
The nature of data set [9]: Cmax in human (healthy individuals) at 10 mg, single oral dose measured uo to 120 hrs. Particulars: in vivo. It counts as ADME.
Data set [10] is described as follows: AUC (0 to 24 hrs) in human (healthy individuals) at 10 mg, single oral dose. The note with it: in vivo. The class given is ADME.
Data set [11] in a line: AUC (0 to 120 hrs) in human (healthy individuals) at 270 mg, single oral dose. The class given is ADME. Particulars: in vivo.

As usually defined, the IC50 is the concentration that inhibits the measured activity by half. For orientation: AUC(0-inf) means total exposure, with the tail of the curve extrapolated. A word on the clearance: it is a measure of how efficiently the substance is removed, as volume per time. In general, Cmax refers to the peak of the concentration-time curve. One may read the AUC(0-t) as the area under the concentration-time curve up to a stated or last time point.

Calls of active or inactive are those of the source. The calls are words filed in the database; no cut-off is given here.

Regarding `Cc1cccnc1-c1ccc(-c2n[nH]c3ncc(-c4ccc5c(c4)CC[C@@H](N4C6COCC4C6)CC5)cc23)nc1`, the IC50 worked out at 0.0018 µM in [1], 0.069 µM in data set [4] and 17 µM against Cytochrome P450 2C8. Also, the hepatocyte CLint in data set [2] came to 20 µL/min/1e6 cells. Also, in data set [3], the total exposure AUC(0-inf) worked out at 1800 ng·h/mL. This molecule gave a clearance in [5] of 12.7 mL/min/kg. The inhibition at 0.5 h, 30 µM stood at 0% at CYP1A2 and 4.1% at CYP2C19. The result in the data set with 786-0 [6], in the data set with 786-0 [7] and in the data set with 786-0 [8] was Active. In [9], the peak level (Cmax) was 3 ng/mL. The area under the curve AUC(0-t) in data set [10] came out at 55 ng·h/mL; in data set [11], 7490 ng·h/mL.

Values taken from ChEMBL document CHEMBL6134930, “Discovery of AB801, a Potent and Selective Inhibitor of AXL Receptor Tyrosine Kinase for Use in Cancer Therapy” (J Med Chem, 2025).
